Experimental data as given in ChEMBL document CHEMBL4184259, “Design, synthesis and evaluation of 4'-OH-flurbiprofen-chalcone hybrids as potential multifunctional agents for Alzheimer's disease treatment” (Bioorg Med Chem, 2018).
Calls of active or inactive are those of the source. No cut-off for these calls is given here.

Key:
[1] = Inhibition of cupric ion-mediated amyloid beta (1 to 42) aggregation at 25 uM after 24 hrs by thioflavin T fluorescence assay relative to control
[2] = Antioxidant activity assessed as trolox equivalent of […]-induced radical scavenging activity at 1 to 10 uM pretreated for 15 mins followed by […] addition measured at 1 min interval for 90 mins by ORAC-FL assay; type: functional
[3] = biological target: Amyloid-beta precursor protein (Homo sapiens) (UniProt P05067); experiment: Inhibition of self-induced aggregation of amyloid beta (1 to 42) (unknown origin) at 25 uM after 24 hrs by thioflavin T fluorescence method relative to control
Amyloid-beta precursor protein (Homo sapiens), sequence (P05067 whole entry): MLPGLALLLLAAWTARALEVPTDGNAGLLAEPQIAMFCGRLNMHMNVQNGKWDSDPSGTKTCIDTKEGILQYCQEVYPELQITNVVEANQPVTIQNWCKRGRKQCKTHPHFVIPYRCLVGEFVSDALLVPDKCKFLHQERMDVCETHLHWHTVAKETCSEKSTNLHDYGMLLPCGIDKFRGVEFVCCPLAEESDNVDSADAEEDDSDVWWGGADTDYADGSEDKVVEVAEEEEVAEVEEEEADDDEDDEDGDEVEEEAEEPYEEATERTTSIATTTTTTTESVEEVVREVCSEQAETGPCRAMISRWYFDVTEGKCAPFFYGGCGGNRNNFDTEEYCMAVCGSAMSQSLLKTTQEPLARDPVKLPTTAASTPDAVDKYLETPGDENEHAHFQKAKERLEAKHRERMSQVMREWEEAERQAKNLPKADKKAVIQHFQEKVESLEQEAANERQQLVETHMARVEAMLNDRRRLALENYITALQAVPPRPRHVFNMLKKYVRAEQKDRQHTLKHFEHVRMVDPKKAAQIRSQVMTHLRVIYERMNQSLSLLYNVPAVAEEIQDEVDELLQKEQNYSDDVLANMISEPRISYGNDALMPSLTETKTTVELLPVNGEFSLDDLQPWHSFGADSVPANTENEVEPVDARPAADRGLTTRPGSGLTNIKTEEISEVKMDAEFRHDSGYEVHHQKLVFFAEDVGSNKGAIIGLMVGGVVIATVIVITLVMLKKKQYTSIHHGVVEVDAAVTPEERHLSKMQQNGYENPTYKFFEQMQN

BV-2 [4] = experiment: Antiinflammatory activity in mouse BV2 cells assessed as inhibition of LPS-induced nitric oxide production at 10 uM pretreated for 30 mins followed by LPS-stimulation measured after 24 hrs by Griess assay relative to control; type: functional
BV-2 [5] = experiment: Antiinflammatory activity in mouse BV2 cells assessed as inhibition of LPS-induced TNFalpha production at 2.5 uM pretreated for 30 mins followed by LPS-stimulation measured after 24 hrs by ELISA relative to control; type: functional
BV-2 [6] = experiment: Cytotoxicity against mouse BV2 cells assessed as reduction in cell viability at 40 uM after 30 mins by MTT assay relative to control; type: cell-based; details: bv-2, 0.5 h
BV-2 [7] = experiment: Antiinflammatory activity in mouse BV2 cells assessed as inhibition of LPS-induced TNFalpha production at 10 uM pretreated for 30 mins followed by LPS-stimulation measured after 24 hrs by ELISA relative to control; type: functional
BV-2 [8] = experiment: Cytotoxicity against LPS-induced mouse BV2 cells assessed as effect on cell viability at 2.5 to 10 uM pretreated for 30 mins followed by LPS-stimulation after 24 hrs by MTT assay; type: cell-based; details: bv-2, 24 h
BV-2 [9] = experiment: Antiinflammatory activity in mouse BV2 cells assessed as inhibition of LPS-induced nitric oxide production at 2.5 uM pretreated for 30 mins followed by LPS-stimulation measured after 24 hrs by Griess assay relative to control; type: functional
BV-2 [10] = experiment: Cytotoxicity against mouse BV2 cells assessed as effect on cell viability up to 10 uM after 30 mins by MTT assay; type: cell-based; details: bv-2, 0.5 h
BV-2 [11] = experiment: Cytotoxicity against LPS-induced mouse BV2 cells assessed as effect on cell viability at 0.5 to 10 uM pretreated for 30 mins followed by LPS-stimulation after 24 hrs by MTT assay; type: cell-based; details: bv-2, 24 h
BV-2 [12] = experiment: Antiinflammatory activity in mouse BV2 cells assessed as inhibition of LPS-induced TNFalpha production at 0.5 uM pretreated for 30 mins followed by LPS-stimulation measured after 24 hrs by ELISA relative to control; type: functional
[13] = Metal chelating activity assessed as mole fraction of compound required to show 1:1 stoichiometry for Cu2+-compound complex by UV-vis spectral analysis
BV-2 [14] = experiment: Antiinflammatory activity in mouse BV2 cells assessed as inhibition of LPS-induced nitric oxide production at 0.5 uM pretreated for 30 mins followed by LPS-stimulation measured after 24 hrs by Griess assay relative to control; type: functional
[15] = Effective permeability of the compound in PBS/EtOH at 100 ug/ml after 18 hrs by PAMPA-BBB assay
[16] = Metal chelating activity assessed as Cu2+-compound complex formation by measuring shift in maximum absorption wavelength at 37.5 uM after 30 mins by UV-Vis spectral analysis
[17] = Metal chelating activity assessed as Al3+-compound complex formation by measuring shift in maximum absorption wavelength at 37.5 uM after 30 mins by UV-Vis spectral analysis
[18] = Metal chelating activity assessed as Fe2+-compound complex formation by measuring shift in maximum absorption wavelength at 37.5 uM after 30 mins by UV-Vis spectral analysis
[19] = Metal chelating activity assessed as Zn2+-compound complex formation by measuring shift in maximum absorption wavelength at 37.5 uM after 30 mins by UV-Vis spectral analysis

Compound | inhibition [1] [%] | Activity [2] [equiv] | inhibition [3] [%] | other results
COc1ccccc1/C=C/C(=O)c1cc(-c2ccc(C(C)C(=O)O)cc2F)ccc1O (centres undefined) | 18.9 | 1.06 | 25.1 | 
CC(C(=O)O)c1ccc(-c2ccc(O)c(C(=O)/C=C/c3ccncc3)c2)c(F)c1 (centres undefined) | 52.8 | 0.9 | 18.2 | 
CC(C(=O)O)c1ccc(-c2ccc(O)c(C(=O)/C=C/c3cccs3)c2)c(F)c1 (centres undefined) | 12.1 | 1.2 | 16.6 | 
COc1cccc(/C=C/C(=O)c2cc(-c3ccc(C(C)C(=O)O)cc3F)ccc2O)c1O (centres undefined) | 13.4 | 1.6 | 29 | 
CC(C(=O)O)c1ccc(-c2ccc(O)c(C(=O)/C=C/c3ccc(N4CCOCC4)cc3)c2)c(F)c1 (centres undefined) | 47.2 | 2.23 | 51.3 | 
COc1cc(/C=C/C(=O)CC(=O)/C=C/c2ccc(O)c(OC)c2)ccc1O | 69.5 |  |  | 
CC(C(=O)O)c1ccc(-c2ccc(O)c(C(=O)/C=C/c3ccccc3N(C)C)c2)c(F)c1 (centres undefined) | 20.1 | 0.77 | 36.8 | 
COc1ccc(/C=C/C(=O)c2cc(-c3ccc(C(C)C(=O)O)cc3F)ccc2O)cc1 (centres undefined) | 29.1 | 0.61 | 32.9 | 
CC(C(=O)O)c1ccc(-c2ccccc2)c(F)c1 (centres undefined) [FLURBIPROFEN] | 6.2 | 0.14 | 12.3 | inhibition at 10 µM (BV-2 [4]): 23%; inhibition at 2.5 µM (BV-2 [5]): 9.6%; Activity (BV-2 [6]): Non-Toxic; inhibition at 10 µM (BV-2 [7]): 30.3%; Activity (BV-2 [8]): Non-Toxic; inhibition at 2.5 µM (BV-2 [9]): 11.8%; Activity (BV-2 [10]): Non-Toxic
CC(C(=O)O)c1ccc(-c2ccc(O)c(C(=O)/C=C/c3ccc(O)cc3)c2)c(F)c1 (centres undefined) | 26.1 | 3.5 | 18.7 | 
COc1cc2c(cc1OC)C(=O)C(CC1CCN(Cc3ccccc3)CC1)C2 (centres undefined) | < 5 |  |  | 
CC(C(=O)O)c1ccc(-c2ccc(O)c(C(=O)/C=C/c3ccccc3O)c2)c(F)c1 (centres undefined) | 16.3 | 3.4 | 23.1 | 
COc1ccc(/C=C/C(=O)c2cc(-c3ccc(C(C)C(=O)O)cc3F)ccc2O)cc1OC (centres undefined) | 24.5 | 1.56 | 14.2 | 
CC(C(=O)O)c1ccc(-c2ccc(O)c(C(=O)/C=C/c3ccc(N4CCCCC4)cc3)c2)c(F)c1 (centres undefined) | 53.8 | 1.1 | 31.5 | 
Cc1ccc(/C=C/C(=O)c2cc(-c3ccc(C(C)C(=O)O)cc3F)ccc2O)cc1 (centres undefined) | 18.7 | 0.42 | 23.6 | 
CCN(CC)c1ccc(/C=C/C(=O)c2cc(-c3ccc(C(C)C(=O)O)cc3F)ccc2O)cc1 (centres undefined) | 95 | 3.3 | 78.2 | Activity (BV-2 [11]): Non-Toxic; inhibition at 10 µM (BV-2 [4]): 68.4%; inhibition at 2.5 µM (BV-2 [5]): 46.2%; Activity (BV-2 [6]): 64.9%; inhibition at 0.5 µM (BV-2 [12]): 14.3%; inhibition at 10 µM (BV-2 [7]): 65.4%; Activity [13]: 1.04 molar ratio; inhibition at 0.5 µM (BV-2 [14]): 30.1%; Papp at 18 h, 100 ug/ml [15]: 6.66 ×10⁻⁶ cm/s; inhibition at 2.5 µM (BV-2 [9]): 46.3%; Activity [16]: 500 nm; Activity [17]: 516 nm; Activity (BV-2 [10]): Non-Toxic
COc1ccc(/C=C/C(=O)c2cc(-c3ccc(C(C)C(=O)O)cc3F)ccc2O)cc1O (centres undefined) | 14.6 | 2 | 31 | 
COc1ccc(O)c(/C=C/C(=O)c2cc(-c3ccc(C(C)C(=O)O)cc3F)ccc2O)c1 (centres undefined) | 22.2 | 2.5 | 38.1 | 
CC(C(=O)O)c1ccc(-c2ccc(O)c(C(=O)/C=C/c3cccnc3)c2)c(F)c1 (centres undefined) | 47 | 1.1 | 8.3 | 
COc1ccc(/C=C/C(=O)c2cc(-c3ccc(C(C)C(=O)O)cc3F)ccc2O)c(OC)c1 (centres undefined) | 45.3 | 1.05 | 18.8 | 
CC(C(=O)O)c1ccc(-c2ccc(O)c(C(=O)/C=C/c3ccc(N(C)C)cc3)c2)c(F)c1 (centres undefined) | 52.4 | 3.1 | 60 | Activity (BV-2 [11]): Non-Toxic; inhibition at 10 µM (BV-2 [4]): 64.7%; inhibition at 2.5 µM (BV-2 [5]): 39.6%; Activity (BV-2 [6]): 69.1%; inhibition at 0.5 µM (BV-2 [12]): 12.1%; inhibition at 10 µM (BV-2 [7]): 61.5%; Activity [13]: 0.99 molar ratio; Activity [18]: inactive; inhibition at 0.5 µM (BV-2 [14]): 25.7%; Papp at 18 h, 100 ug/ml [15]: 2.25 ×10⁻⁶ cm/s; inhibition at 2.5 µM (BV-2 [9]): 36%; Activity [16]: 492 nm; Activity [17]: 500 nm; Activity (BV-2 [10]): Non-Toxic; Activity [19]: inactive
